Measured values reported in patent US9857359B2, “Methods for determining drug efficacy using cereblon-associated proteins” (CELGENE CORPORATION, priority 2012, dated 2018).

What was measured:
Aiolos [1] = test: Aiolos Western blotting of primary human T cells; format: cell-based; conditions: 6 hours and 24 hours
Description: Primary T cells from up to 3 donors were isolated from human leukocytes (Blood Center of New Jersey, East Orange, N.J.) by centrifugation through FICOLL® following the ROSETETTESEP™ protocol (Stem Cell Technologies, Vancouver, Canada). Purified T cells were stimulated with anti-CD3 Antibody (Ebioscience, San Diego, Calif.), drug treated for six hours, harvested and Aiolos and Ikaros protein expression was determined by immunoblot analysis using antibodies against Aiolos (Santa Cruz, Dallas, Tex.) and Ikaros (Millipore, Billerica, Mass.) with our without blocking peptide.

p21^WAF-1 = test: B-CLL / CD40L fibroblast co-culture Western blot, p21^WAF-1; format: cell-based, human; conditions: 72 hours, 10 μM lenalidomide, 1 μM pomalidomide, 0.1 μM Compound A, 0.1 μM Compound B, 3 patient samples
Description: (§1) Human primary B-CLL cells viably frozen from patient samples were obtained from AllCells (Emeryville, Calif., USA) and maintained in Roswell Park Memorial Institute (RPMI)-1640 medium with 10% fetal bovine serum (FBS) (Invitrogen, Carlsbad, Calif.). CD40L expressing fibroblasts (gift from Angela Piperno, Rockefeller University, NY, N.Y.) were maintained in DMEM medium supplied with 20% FBS. Prior to co-cultures CD40L fibroblasts were pre-treated for 3 hours with 10 μg/mL Mytomicin C followed by a wash with PBS and Accutase dissociation. Cells were then re-plated at a density of 6×10^5 cells per well (24 well per plate format) and grown overnight to allow formation of monolayer. Defrosted viable primary B-CLL patient cells were pre-stained with CFSE reagent (Vibrant CFDA SE Cell Tracer Kit, Invitrogen, Carlsbad, Calif., USA) according to a manufacturer's supplied protocol and plated at 0.8-1×10^6 cells per well on the pre-formed monolayer of CD40L fibroblasts in RPMI 1640 medium supplemented with 10% FBS, 5 ng/mL rh-IL4 and 10 ng/mL rh-IL10 (Peprotech, USA). For long term cultures, half of the culture media was renewed every three days. Alternatively, for other assays, B-CLL cells were co-cultured on CD40L without being pre-stained.
(§2) Effects of compound treatment on CRBN, Aiolos, p21^WAF-1 and IRF4 were evaluated in 3 different patient cell samples (FIG. 56A). The three patient samples show similar expression levels of CRBN protein (compare lane 1 of the 3 Western blots in FIG. 56A; samples were run in same membrane even though gels are presented as 3 independent pictures in the figure). […] The effects on p21, IRF4 and Aiolos are consistent with the cell cycle arrest and inhibition of proliferation observed with compound treatment.

Aiolos [2] = test: Aiolos protein level in B cells from CLL patients and healthy subjects; format: cell-based, human; conditions: B cells obtained from CLL patients as well as healthy subjects
Aiolos [3] = test: B-CLL / CD40L fibroblast co-culture, Aiolos (Western blot, flow cytometry); format: cell-based, human; conditions: for Aiolos protein level: B-CLL co-culture, 72 hours, 10 μM lenalidomide, 1 μM pomalidomide, 0.1 μM Compound A, 0.1 μM Compound B, 3 patient samples; for Dose dependence of Aiolos inhibition by flow cytometry: three different B-CLL patient co-culture samples
Description: (§3) CD40L expressing fibroblasts (gift from Angela Piperno, Rockefeller University, NY, N.Y.) were maintained in DMEM medium supplied with 20% FBS. Prior to co-cultures CD40L fibroblasts were pre-treated for 3 hours with 10 μg/mL Mytomicin C followed by a wash with PBS and Accutase dissociation. Cells were then re-plated at a density of 6×10^5 cells per well (24 well per plate format) and grown overnight to allow formation of monolayer. […] For long term cultures, half of the culture media was renewed every three days. Alternatively, for other assays, B-CLL cells were co-cultured on CD40L without being pre-stained.
(§4) Effects of compound treatment on CRBN, Aiolos, p21^WAF-1 and IRF4 were evaluated in 3 different patient cell samples (FIG. 56A).

IRF4 = test: B-CLL / CD40L fibroblast co-culture Western blot, IRF4; format: cell-based, human; conditions: 72 hours, 10 μM lenalidomide, 1 μM pomalidomide, 0.1 μM Compound A, 0.1 μM Compound B, 3 patient samples
Description: as §1, §2

Aiolos [4] = test: Aiolos expression by western blot at 6 hours (FIG. 37); format: cell-based; conditions: 6 hours after the treatment, with varying degrees
CRBN = CRBN (Homo sapiens, UniProt Q96SW2); test: B-CLL / CD40L fibroblast co-culture Western blot, CRBN; format: cell-based; parameters: endogenous in cells; host or cells: primary B-CLL patient cells co-cultured with CD40L-expressing fibroblasts; conditions: 72 hours, 10 μM lenalidomide, 1 μM pomalidomide, 0.1 μM Compound A, 0.1 μM Compound B, 3 patient samples
Chain of CRBN (Q96SW2 whole entry): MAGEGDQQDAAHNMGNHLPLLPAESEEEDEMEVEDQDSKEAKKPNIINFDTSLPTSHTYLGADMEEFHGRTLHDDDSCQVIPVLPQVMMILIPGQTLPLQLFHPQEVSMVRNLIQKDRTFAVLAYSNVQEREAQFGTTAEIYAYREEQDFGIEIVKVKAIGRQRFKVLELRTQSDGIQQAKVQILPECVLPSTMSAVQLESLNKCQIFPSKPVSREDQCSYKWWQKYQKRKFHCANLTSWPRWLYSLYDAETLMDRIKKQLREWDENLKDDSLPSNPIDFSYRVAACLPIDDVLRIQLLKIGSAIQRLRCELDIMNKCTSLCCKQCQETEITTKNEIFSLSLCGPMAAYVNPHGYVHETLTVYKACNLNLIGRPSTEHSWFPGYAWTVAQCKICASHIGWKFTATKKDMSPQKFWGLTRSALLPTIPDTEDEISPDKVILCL
Description: as §3, §4

Aiolos [5] = test: Aiolos protein inhibition in myeloma cells; format: cell-based
Ikaros = Ikaros expression by western blot at 6 hours (FIG. 37); format: cell-based; conditions: 6 hours after the treatment, with varying degrees

| Structure (SMILES) | Aiolos expression (Aiolos [1]) | p21^WAF-1 protein level (p21^WAF-1) | Aiolos expression (Aiolos [2]) | Aiolos protein level (Aiolos [3]) | Dose dependence of Aiolos inhibition by flow cytometry (Aiolos [3]) | IRF4 protein level (IRF4) | Aiolos expression (Aiolos [4]) | CRBN protein levels (CRBN) | Aiolos expression (Aiolos [5]) | Potency in Aiolos protein inhibition relative to Len (Aiolos [5]) | Ikaros expression (Ikaros) |
| --- | --- | --- | --- | --- | --- | --- | --- | --- | --- | --- | --- |
| Nc1cccc2c1C(=O)N(C1CCC(=O)NC1=O)C2=O (centres unmarked) [pomalidomide, reference compound] | showed an inhibitory effect on Aiolos expression | upregulated | inhibit Aiolos expression | down regulated | dose-dependent inhibition of Aiolos | down regulated | inhibited the expression of both Aiolos and Ikaros | do not affect CRBN protein levels or in some samples induce slight increased of CRBN levels | showed inhibitory effect on Aiolos expression | higher potency than Len | inhibited the expression of both Aiolos and Ikaros |
| Nc1cccc2c1CN(C1CCC(=O)NC1=O)C2=O (centres unmarked) [lenalidomide] | – | upregulated | – | – | – | down regulated | – | – | – | – | – |
| O=C1CC[C@H](N2Cc3c(OCc4ccc(CN5CCOCC5)cc4)cccc3C2=O)C(=O)N1 [Compound B, 3-(4-((4-(morpholinomethyl)benzyl)oxy)-1-oxoisoindolin-2-yl)piperidine-2,6-dione] | showed an inhibitory effect on Aiolos expression | upregulated | inhibit Aiolos expression | down regulated | dose-dependent inhibition of Aiolos | down regulated | inhibited the expression of both Aiolos and Ikaros | do not affect CRBN protein levels or in some samples induce slight increased of CRBN levels | showed inhibitory effect on Aiolos expression | higher potency than Len | inhibited the expression of both Aiolos and Ikaros |
| Cc1nc2cccc(N)c2c(=O)n1C1CCC(=O)NC1=O (centres unmarked) [Compound A, 3-(5-amino-2-methyl-4-oxo-4H-quinazolin-3-yl)-piperidine-2,6-dione] | showed an inhibitory effect on Aiolos expression | upregulated | inhibit Aiolos expression | down regulated | dose-dependent inhibition of Aiolos | down regulated | inhibited the expression of both Aiolos and Ikaros | do not affect CRBN protein levels or in some samples induce slight increased of CRBN levels | showed inhibitory effect on Aiolos expression | higher potency than Len | inhibited the expression of both Aiolos and Ikaros |
